{"source": "patent US11414431B2", "about": "“Substituted pyrazolo[1,5-a]pyrimidines as TYK2 inhibitors” (Nimbus Lakshmi, Inc., priority 2018, dated 2022)"}
{"test_system": "IL-12 induced STAT4 phosphorlyation mediated by TYK2/JAK2", "experiment": "IL-12 Induced pSTAT4 in Human PBMC", "assay_type": "cell-based", "settings": "1.7 ng/mL IL-12 for 30 minutes", "method_in_brief": "(§1)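 Thawed human PBMC pre-incubated with compound 1 hr at 37° C (0.1% DMSO final), then stimulated 30 minutes with IL-12 at 1.7 ng/mL final. pSTAT4 and total STAT4 measured in cell lysates with MSD reagents.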", "units": {"IC50": "µM"}}
{"smiles": "CNc1cc(-c2cn([C@@H]3COC[C@H]3OC)c3ncccc23)nc2c(C(=O)N[C@@H]3CC[C@@H]3O)cnn12", "note": "[Compound I-583]", "IC50": "0.1 to 0.5"}
{"smiles": "CNc1cc(Nc2cccn(-c3ccccn3)c2=O)nc2c(C(=O)N[C@H]3CC[C@@H]3F)cnn12", "note": "[Compound I-201]", "IC50": "< 0.1"}
{"smiles": "CNc1cc(-c2cn([C@@H]3CN(C)C[C@H]3OC)c3ncccc23)nc2c(C(=O)NC3CC[C@@H]3OC)cnn12", "note": "(some centres unmarked) [Compound I-645]", "IC50": "< 0.1"}
{"smiles": "CNc1cc(-c2cn([C@H]3COC[C@@H]3O)c3ncccc23)nc2c(C(=O)N[C@H]3CC[C@@H]3OC)cnn12", "note": "[Compound I-631]", "IC50": "< 0.1"}
{"smiles": "CNc1cc(Nc2cccn([C@H]3C[C@@H]3F)c2=O)nc2c(C(=O)N[C@H]3CC[C@@H]3F)cnn12", "note": "[Compound I-149]", "IC50": "< 0.1"}
{"smiles": "CNc1cc(-c2cnc3n([C@@H]4CCOC[C@H]4O)cccc2-3)nc2c(C(=O)N[C@H]3CC[C@@H]3F)cnn12", "note": "[Compound I-848]", "IC50": "< 0.1"}
{"smiles": "CNc1cc(-c2cn(C3CN(C)C3)c3ncccc23)nc2c(C(=O)NC3CC[C@@H]3F)cnn12", "note": "(some centres unmarked) [Compound I-513]", "IC50": "< 0.1"}
{"smiles": "CNc1cc(Nc2cccn([C@H]3C[C@H](F)C3)c2=O)nc2c(C(=O)N[C@H]3CC[C@@H]3F)cnn12", "note": "[Compound I-165]", "IC50": "< 0.1"}
{"smiles": "CNc1cc(-c2cnc3n(CC(=O)N4CCC4)cccc2-3)nc2c(C(=O)N[C@H]3CC[C@@H]3OC)cnn12", "note": "[Compound I-977]", "IC50": "> 1"}
{"smiles": "CNc1cc(-c2cn([C@@H]3COC[C@H]3O)c3ncccc23)nc2c(C(=O)NC3CCC3(F)F)cnn12", "note": "(some centres unmarked) [Compound I-692]", "IC50": "< 0.1"}
{"smiles": "CNc1cc(-c2cn([C@H]3CCOC[C@H]3F)c3ncccc23)nc2c(C(=O)NC3CC[C@H]3O)cnn12", "note": "(some centres unmarked) [Compound I-591]", "IC50": "0.5 to 1"}
{"smiles": "CNc1cc(-c2cnc3n([C@H]4COC[C@@H]4OC)cccc2-3)nc2c(C(=O)N[C@H]3CC[C@H]3F)cnn12", "note": "[Compound I-839]", "IC50": "< 0.1"}
{"smiles": "CNc1cc(-c2cn(CC(=O)N3CCCC3)c3ncccc23)nc2c(C(=O)N[C@H]3CC[C@@H]3OC)cnn12", "note": "[Compound I-965]", "IC50": "< 0.1"}
{"smiles": "CNc1cc(-c2cn([C@@H]3CCOC[C@@H]3OC)c3ncccc23)nc2c(C(=O)N[C@H]3CCC3(F)F)cnn12", "note": "[Compound I-703]", "IC50": "< 0.1"}
{"smiles": "CNc1cc(-c2cnc3n([C@H]4COC[C@@H]4OC)cccc2-3)nc2c(C(=O)N[C@@H]3CC[C@@H]3F)cnn12", "note": "[Compound I-840]", "IC50": "< 0.1"}
{"smiles": "CNc1cc(-c2cn([C@@H]3CCN(C)C3)c3ncccc23)nc2c(C(=O)N[C@H]3CC[C@@H]3OC)cnn12", "note": "[Compound I-616]", "IC50": "< 0.1"}
{"smiles": "CNc1cc(-c2cn([C@H]3COC[C@@H]3O)c3ncccc23)nc2c(C(=O)NC3CC[C@@H]3OC)cnn12", "note": "(some centres unmarked) [Compound I-630]", "IC50": "0.1 to 0.5"}
{"smiles": "CNc1cc(Nc2cccn([C@@H]3CCCOC3)c2=O)nc2c(C(=O)NC3CCC3(F)F)cnn12", "note": "(some centres unmarked) [Compound I-315]", "IC50": "< 0.1"}
{"smiles": "CNc1cc(-c2cn(CC(=O)N3CCCC3)c3ncccc23)nc2c(C(=O)NC3CC[C@@H]3OC)cnn12", "note": "(some centres unmarked) [Compound I-931]", "IC50": "0.1 to 0.5"}
{"smiles": "CNc1cc(-c2cn(C3CCCC3)c3ncccc23)nc2c(C(=O)NC3CCC3(F)F)cnn12", "note": "(centres unmarked) [Compound I-683]", "IC50": "< 0.1"}
{"smiles": "CNc1cc(-c2cnc3n([C@H]4COC[C@@H]4OC)cccc2-3)nc2c(C(=O)N[C@H]3CC[C@@H]3F)cnn12", "note": "[Compound I-833]", "IC50": "< 0.1"}
{"smiles": "CNc1cc(-c2cn([C@H]3C[C@@H](O)C3)c3ncccc23)nc2c(C(=O)NC3CCC3(F)F)cnn12", "note": "(some centres unmarked) [Compound I-677]", "IC50": "< 0.1"}
{"smiles": "CNc1cc(-c2cn([C@H]3COC[C@H]3F)c3ncccc23)nc2c(C(=O)N[C@H]3COC[C@H]3O)cnn12", "note": "[Compound I-726]", "IC50": "< 0.1"}
{"smiles": "CNc1cc(-c2cn([C@@H]3CN(C)C[C@H]3OC)c3ncccc23)nc2c(C(=O)N[C@H]3CC[C@@H]3OC)cnn12", "note": "[Compound I-646]", "IC50": "< 0.1"}
{"smiles": "CNc1cc(-c2cnc3n([C@H]4COC[C@@H]4O)cccc2-3)nc2c(C(=O)NC3CC[C@@H]3OC)cnn12", "note": "(some centres unmarked) [Compound I-877]", "IC50": "0.1 to 0.5"}
{"smiles": "CNc1cc(Nc2cccn([C@H]3CC[C@H]3O)c2=O)nc2c(C(=O)NC3CCC3(F)F)cnn12", "note": "(some centres unmarked) [Compound I-286]", "IC50": "< 0.1"}
{"smiles": "CNc1cc(-c2cn(CCOC)c3ncccc23)nc2c(C(=O)NC3CC[C@@H]3OC)cnn12", "note": "(some centres unmarked) [Compound I-795]", "IC50": "< 0.1"}
{"smiles": "CNc1cc(Nc2cccn(-c3ccccn3)c2=O)nc2c(C(=O)N[C@@H]3CC[C@H]3OC)cnn12", "note": "[Compound I-264]", "IC50": "< 0.1"}
{"smiles": "CNc1cc(Nc2cccn([C@@H]3CCC[C@H](C#N)C3)c2=O)nc2c(C(=O)N[C@H]3CCC3(F)F)cnn12", "note": "[Compound I-328]", "IC50": "< 0.1"}
{"smiles": "CNc1cc(-c2cnc3n([C@H]4CN(C)C[C@@H]4OC)cccc2-3)nc2c(C(=O)N[C@H]3CC[C@@H]3OC)cnn12", "note": "[Compound I-947]", "IC50": "< 0.1"}
{"smiles": "CNc1cc(Nc2cccn(C(C)C)c2=O)nc2c(C(=O)NC3CC[C@]3(C)O)cnn12", "note": "(some centres unmarked) [Compound I-339]", "IC50": "< 0.1"}
{"smiles": "CNc1cc(-c2cnc3n([C@@H]4COC[C@H]4OC)cccc2-3)nc2c(C(=O)NC3CC[C@H]3F)cnn12", "note": "(some centres unmarked) [Compound I-841]", "IC50": "< 0.1"}
{"smiles": "CNc1cc(-c2cn([C@@H]3COC[C@H]3OC)c3ccccc23)nc2c(C(=O)NC3CC[C@@H]3OC)cnn12", "note": "(some centres unmarked) [Compound I-744]", "IC50": "< 0.1"}
{"smiles": "CNc1cc(Nc2cccn(C3CCOCC3)c2=O)nc2c(C(=O)N[C@@H]3CC[C@@H]3F)cnn12", "note": "[Compound I-193]", "IC50": "< 0.1"}
{"smiles": "CNc1cc(-c2cn([C@H]3CC(=O)N(C4CCOCC4)C3)c3ncccc23)nc2c(C(=O)N[C@H]3CC[C@@H]3OC)cnn12", "note": "[Compound I-1030]", "IC50": "0.1 to 0.5"}
{"smiles": "CNc1cc(-c2cn([C@H]3CN(C)C[C@@H]3OC)c3ncccc23)nc2c(C(=O)N[C@H]3CC[C@@H]3OC)cnn12", "note": "[Compound I-649]", "IC50": "< 0.1"}
{"smiles": "CNc1cc(-c2cn([C@H]3C[C@@H](COC)C3)c3ncccc23)nc2c(C(=O)NC3CC[C@H]3O)cnn12", "note": "(some centres unmarked) [Compound I-912]", "IC50": "< 0.1"}
{"test_system": "IL-12 induced STAT4 phosphorlyation mediated by TYK2/JAK2", "experiment": "IL-12 Induced pSTAT4 in Human PBMC", "assay_type": "cell-based", "settings": "0.5 h, 1.7 ng/mL IL-12 for 30 minutes", "method_in_brief": "as §1", "units": {"IC50": "µM"}}
{"smiles": "CNc1cc(-c2cn([C@H]3C[C@@H](COC)C3)c3ncccc23)nc2c(C(=O)NC3CC[C@@H]3OC)cnn12", "note": "(stereo partly drawn) [Compound I-932, N-(2-methoxycyclobutyl)-5-(1-((1s,3R)-3-(methoxymethyl)cyclobutyl)-1H-pyrrolo[2,3-b]pyridin-3-yl)-7-(methylamino)pyrazolo[1,5-a]pyrimidine-3-carboxamide]", "IC50": "< 0.1"}
{"smiles": "CNc1cc(-c2cnc3n(CC(C)(C)O)cccc2-3)nc2c(C(=O)NC3CC[C@@H]3OC)cnn12", "note": "(stereo in doubt) [Compound I-979, 5-(7-(2-hydroxy-2-methylpropyl)-7H-pyrrolo[2,3-b]pyridin-3-yl)-N-(2-methoxycyclobutyl)-7-(methylamino)pyrazolo[1,5-a]pyrimidine-3-carboxamide]", "IC50": "0.1 to 0.5"}
{"smiles": "CNc1cc(Nc2cccn([C@@H]3CCC[C@H](C#N)C3)c2=O)nc2c(C(=O)NC3CC[C@@H]3OC)cnn12", "note": "(stereo partly drawn) [Compound I-115, 5-((1-((1R,3S)-3-Cyanocyclohexyl)-2-oxo-1,2-dihydropyridin-3-yl)amino)-N-((trans-1,2)-2-methoxycyclobutyl)-7-(methylamino)pyrazolo[1,5-a]pyrimidine-3-carboxamide]", "IC50": "< 0.1"}
{"smiles": "CNc1cc(-c2cn([C@H]3CO[C@@H](COC)C3)c3ncccc23)nc2c(C(=O)N[C@H]3CC[C@@H]3OC)cnn12", "note": "[Compound I-1018, N-((1S,2S)-2-methoxycyclobutyl)-5-(1-(5-(methoxymethyl)tetrahydrofuran-3-yl)-1H-pyrrolo[2,3-b]pyridin-3-yl)-7-(methylamino)pyrazolo[1,5-a]pyrimidine-3-carboxamide]", "IC50": "< 0.1"}
